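Following 48 hours of exposure in 96-well plates, responses at five concentrations were used to interpolate endpoints linearly. GI50 = concentration required for 50% inhibition of growth. TGI denotes the concentration required for complete inhibition of growth.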
Key:
Experiment in all cases: NCI anticancer screen, dose series, 48 h
786-0 renal = system: 786-0 renal
A498 renal = system: A498 renal
A549 NSCLC = system: A549 NSCLC
ACHN renal = system: ACHN renal
BT-549 breast = system: BT-549 breast
CAKI-1 renal = system: CAKI-1 renal
CCRF-CEM leukemia = system: CCRF-CEM leukemia
COLO 205 colon = system: COLO 205 colon
DU-145 prostate = system: DU-145 prostate
EKVX NSCLC = system: EKVX NSCLC
HCC-2998 colon = system: HCC-2998 colon
HCT-116 colon = system: HCT-116 colon
HCT-15 colon = system: HCT-15 colon
HL-60(TB) leukemia = system: HL-60(TB) leukemia
HOP-62 NSCLC = system: HOP-62 NSCLC
HOP-92 NSCLC = system: HOP-92 NSCLC
HS 578T breast = system: HS 578T breast
HT29 colon = system: HT29 colon
IGROV1 ovarian = system: IGROV1 ovarian
K-562 leukemia = system: K-562 leukemia
KM12 colon = system: KM12 colon
LOX IMVI melanoma = system: LOX IMVI melanoma
M14 melanoma = system: M14 melanoma
MALME-3M melanoma = system: MALME-3M melanoma
MCF7 breast = system: MCF7 breast
MDA-MB-231 breast = system: MDA-MB-231 breast
MDA-MB-435 = system: MDA-MB-435
MOLT-4 leukemia = system: MOLT-4 leukemia
NCI-H226 lung = system: NCI-H226 lung
NCI-H23 lung = system: NCI-H23 lung
NCI-H460 lung = system: NCI-H460 lung
NCI-H522 lung = system: NCI-H522 lung
NCI/ADR-RES ovarian = system: NCI/ADR-RES ovarian
OVCAR-3 ovarian = system: OVCAR-3 ovarian
OVCAR-4 ovarian = system: OVCAR-4 ovarian
OVCAR-5 ovarian = system: OVCAR-5 ovarian
OVCAR-8 ovarian = system: OVCAR-8 ovarian
PC-3 prostate = system: PC-3 prostate
RPMI-8226 leukemia = system: RPMI-8226 leukemia
RXF 393 renal = system: RXF 393 renal
SF-268 CNS = system: SF-268 CNS
SF-295 CNS = system: SF-295 CNS
SF-539 CNS = system: SF-539 CNS
SK-MEL-2 melanoma = system: SK-MEL-2 melanoma
SK-MEL-28 melanoma = system: SK-MEL-28 melanoma
SK-MEL-5 melanoma = system: SK-MEL-5 melanoma
SK-OV-3 ovarian = system: SK-OV-3 ovarian
SN12C renal = system: SN12C renal
SNB-19 CNS = system: SNB-19 CNS
SNB-75 CNS = system: SNB-75 CNS
SR leukemia = system: SR leukemia
SW-620 colon = system: SW-620 colon
T-47D breast = system: T-47D breast
TK-10 renal = system: TK-10 renal
U251 CNS = system: U251 CNS
UACC-257 melanoma = system: UACC-257 melanoma
UACC-62 melanoma = system: UACC-62 melanoma
UO-31 renal = system: UO-31 renal

For `COC(=O)C(=Cc1ccccc1[N+](=O)[O-])C(=O)OC`, which GI50 (786-0 renal) is on record?
The GI50 was 4.24 µM.

And the TGI (786-0 renal)?
The TGI was 14.2 µM.

What about the GI50 (A498 renal) of the same compound?
Its GI50 is 2.75 µM.

What about the TGI (A498 renal) of the same compound?
Its TGI is 8.23 µM.

What about the GI50 (A549 NSCLC) of the same compound?
Its GI50 is 3.98 µM.

What about the TGI (A549 NSCLC) of the same compound?
Its TGI is 21.7 µM.

What about the GI50 (ACHN renal) of the same compound?
Its GI50 is 4.33 µM.

What about the TGI (ACHN renal) of the same compound?
The TGI was 15.6 µM.

And the GI50 (BT-549 breast)?
The GI50 was 7.14 µM.

What about the TGI (BT-549 breast) of the same compound?
The TGI was 19.8 µM.

And the GI50 (CAKI-1 renal)?
The GI50 was 3.61 µM.

What about the TGI (CAKI-1 renal) of the same compound?
The TGI was 14.1 µM.

What about the GI50 (CCRF-CEM leukemia) of the same compound?
The GI50 was 1.81 µM.

And the TGI (CCRF-CEM leukemia)?
The TGI was 5.16 µM.

And the GI50 (COLO 205 colon)?
Its GI50 is 3.05 µM.

What about the TGI (COLO 205 colon) of the same compound?
The TGI was 11 µM.

And the GI50 (DU-145 prostate)?
Its GI50 is 2.29 µM.

And the TGI (DU-145 prostate)?
Its TGI is 6.61 µM.

And the GI50 (EKVX NSCLC)?
The GI50 was 4.23 µM.

What about the TGI (EKVX NSCLC) of the same compound?
The TGI was 17 µM.

And the GI50 (HCC-2998 colon)?
The GI50 was 2.68 µM.

What about the TGI (HCC-2998 colon) of the same compound?
The TGI was 7.36 µM.

What about the GI50 (HCT-116 colon) of the same compound?
Its GI50 is 2.69 µM.

And the TGI (HCT-116 colon)?
Its TGI is 9.55 µM.

What about the GI50 (HCT-15 colon) of the same compound?
The GI50 was 2.08 µM.

What about the TGI (HCT-15 colon) of the same compound?
Its TGI is 10.7 µM.

And the GI50 (HL-60(TB) leukemia)?
The GI50 was 2.78 µM.

What about the TGI (HL-60(TB) leukemia) of the same compound?
The TGI was over 100 µM.

And the GI50 (HOP-62 NSCLC)?
The GI50 was 13.6 µM.

What about the TGI (HOP-62 NSCLC) of the same compound?
Its TGI is 27.1 µM.

And the GI50 (HOP-92 NSCLC)?
Its GI50 is 2.38 µM.

And the TGI (HOP-92 NSCLC)?
The TGI was 7.4 µM.

And the GI50 (HS 578T breast)?
The GI50 was 2.04 µM.

And the TGI (HS 578T breast)?
The TGI was 8.09 µM.

And the GI50 (HT29 colon)?
The GI50 was 3.54 µM.

What about the TGI (HT29 colon) of the same compound?
Its TGI is 14.4 µM.

What about the GI50 (IGROV1 ovarian) of the same compound?
Its GI50 is 3.41 µM.

What about the TGI (IGROV1 ovarian) of the same compound?
Its TGI is 12 µM.

What about the GI50 (K-562 leukemia) of the same compound?
Its GI50 is 2.51 µM.

And the TGI (K-562 leukemia)?
Its TGI is 9.48 µM.

And the GI50 (KM12 colon)?
The GI50 was 2.99 µM.

What about the TGI (KM12 colon) of the same compound?
Its TGI is 10 µM.

And the GI50 (LOX IMVI melanoma)?
Its GI50 is 2.08 µM.

What about the TGI (LOX IMVI melanoma) of the same compound?
The TGI was 5.88 µM.

And the GI50 (M14 melanoma)?
The GI50 was 3.04 µM.

And the TGI (M14 melanoma)?
The TGI was 14 µM.

And the GI50 (MALME-3M melanoma)?
The GI50 was 4.44 µM.

What about the TGI (MALME-3M melanoma) of the same compound?
The TGI was 18.1 µM.

And the GI50 (MCF7 breast)?
The GI50 was 2.35 µM.

And the TGI (MCF7 breast)?
The TGI was 11.2 µM.

What about the GI50 (MDA-MB-231 breast) of the same compound?
Its GI50 is 3.68 µM.

And the TGI (MDA-MB-231 breast)?
Its TGI is 13.5 µM.

And the GI50 (MDA-MB-435)?
The GI50 was 2.26 µM.

What about the TGI (MDA-MB-435) of the same compound?
The TGI was 10.2 µM.

What about the GI50 (MOLT-4 leukemia) of the same compound?
The GI50 was 2.31 µM.

And the TGI (MOLT-4 leukemia)?
The TGI was 7.21 µM.

What about the GI50 (NCI-H226 lung) of the same compound?
Its GI50 is 8.34 µM.

What about the TGI (NCI-H226 lung) of the same compound?
The TGI was 24.8 µM.

What about the GI50 (NCI-H23 lung) of the same compound?
The GI50 was 2.62 µM.

And the TGI (NCI-H23 lung)?
The TGI was 9.83 µM.

And the GI50 (NCI-H460 lung)?
The GI50 was 3.41 µM.

What about the TGI (NCI-H460 lung) of the same compound?
Its TGI is 13.7 µM.

And the GI50 (NCI-H522 lung)?
Its GI50 is 1.9 µM.

And the TGI (NCI-H522 lung)?
Its TGI is 6.65 µM.

What about the GI50 (NCI/ADR-RES ovarian) of the same compound?
Its GI50 is 2.31 µM.

And the TGI (NCI/ADR-RES ovarian)?
Its TGI is 5.77 µM.

And the GI50 (OVCAR-3 ovarian)?
The GI50 was 2.28 µM.

And the TGI (OVCAR-3 ovarian)?
Its TGI is 5.67 µM.

What about the GI50 (OVCAR-4 ovarian) of the same compound?
The GI50 was 3.94 µM.

And the TGI (OVCAR-4 ovarian)?
Its TGI is 16.1 µM.

And the GI50 (OVCAR-5 ovarian)?
The GI50 was 3.13 µM.

What about the TGI (OVCAR-5 ovarian) of the same compound?
The TGI was 8.35 µM.

And the GI50 (OVCAR-8 ovarian)?
Its GI50 is 3.53 µM.

What about the TGI (OVCAR-8 ovarian) of the same compound?
Its TGI is 40.8 µM.

What about the GI50 (PC-3 prostate) of the same compound?
Its GI50 is 4.63 µM.

What about the TGI (PC-3 prostate) of the same compound?
Its TGI is 21.1 µM.

And the GI50 (RPMI-8226 leukemia)?
The GI50 was 1.27 µM.

And the TGI (RPMI-8226 leukemia)?
The TGI was 3.63 µM.

And the GI50 (RXF 393 renal)?
Its GI50 is 1.87 µM.

And the TGI (RXF 393 renal)?
The TGI was 4.3 µM.

What about the GI50 (SF-268 CNS) of the same compound?
The GI50 was 3.06 µM.

And the TGI (SF-268 CNS)?
The TGI was 12.7 µM.

What about the GI50 (SF-295 CNS) of the same compound?
The GI50 was 4.08 µM.

What about the TGI (SF-295 CNS) of the same compound?
The TGI was 17.3 µM.

And the GI50 (SF-539 CNS)?
The GI50 was 2.63 µM.

What about the TGI (SF-539 CNS) of the same compound?
The TGI was 7.5 µM.

And the GI50 (SK-MEL-2 melanoma)?
Its GI50 is 3.61 µM.

And the TGI (SK-MEL-2 melanoma)?
Its TGI is 16.4 µM.

And the GI50 (SK-MEL-28 melanoma)?
The GI50 was 2.16 µM.

And the TGI (SK-MEL-28 melanoma)?
Its TGI is 6.06 µM.

What about the GI50 (SK-MEL-5 melanoma) of the same compound?
Its GI50 is 2.55 µM.

And the TGI (SK-MEL-5 melanoma)?
Its TGI is 9.2 µM.

What about the GI50 (SK-OV-3 ovarian) of the same compound?
The GI50 was 10.2 µM.

What about the TGI (SK-OV-3 ovarian) of the same compound?
The TGI was 21.8 µM.

What about the GI50 (SN12C renal) of the same compound?
The GI50 was 3.63 µM.

And the TGI (SN12C renal)?
Its TGI is 18.1 µM.

What about the GI50 (SNB-19 CNS) of the same compound?
The GI50 was 5.41 µM.

What about the TGI (SNB-19 CNS) of the same compound?
The TGI was 21.6 µM.

And the GI50 (SNB-75 CNS)?
The GI50 was 2.75 µM.

What about the TGI (SNB-75 CNS) of the same compound?
Its TGI is 15.3 µM.

And the GI50 (SR leukemia)?
The GI50 was 1.04 µM.

What about the TGI (SR leukemia) of the same compound?
The TGI was 4.84 µM.

What about the GI50 (SW-620 colon) of the same compound?
The GI50 was 3.9 µM.

What about the TGI (SW-620 colon) of the same compound?
Its TGI is 12.7 µM.

What about the GI50 (T-47D breast) of the same compound?
The GI50 was 2.12 µM.

And the TGI (T-47D breast)?
Its TGI is 11 µM.

And the GI50 (TK-10 renal)?
The GI50 was 5.93 µM.

And the TGI (TK-10 renal)?
Its TGI is 18.1 µM.

What about the GI50 (U251 CNS) of the same compound?
The GI50 was 3.23 µM.

And the TGI (U251 CNS)?
The TGI was 13.9 µM.

What about the GI50 (UACC-257 melanoma) of the same compound?
The GI50 was 4.06 µM.

And the TGI (UACC-257 melanoma)?
Its TGI is 17.3 µM.

And the GI50 (UACC-62 melanoma)?
The GI50 was 3.79 µM.

And the TGI (UACC-62 melanoma)?
Its TGI is 15.5 µM.

What about the GI50 (UO-31 renal) of the same compound?
Its GI50 is 2.31 µM.

What about the TGI (UO-31 renal) of the same compound?
The TGI was 9.8 µM.

Source: PubChem BioAssay (NCI)
